Measured values: patent US20030143729A1 (Synaptic Pharmaceutical Corporation, priority 1992, published 2003)
Values joined by “and” are separate entries in the source; they are usually repeats but may differ in a detail not shown here. Identical values can stand only once. Like-named read-outs stand apart in the source and are kept apart here.

What was measured:
human GAT-3 = molecular target: T1, human GAT-3 (Homo sapiens, UniProt P48066); settings: 50 nM [3H]GABA
T1 sequence (P48066 1-632): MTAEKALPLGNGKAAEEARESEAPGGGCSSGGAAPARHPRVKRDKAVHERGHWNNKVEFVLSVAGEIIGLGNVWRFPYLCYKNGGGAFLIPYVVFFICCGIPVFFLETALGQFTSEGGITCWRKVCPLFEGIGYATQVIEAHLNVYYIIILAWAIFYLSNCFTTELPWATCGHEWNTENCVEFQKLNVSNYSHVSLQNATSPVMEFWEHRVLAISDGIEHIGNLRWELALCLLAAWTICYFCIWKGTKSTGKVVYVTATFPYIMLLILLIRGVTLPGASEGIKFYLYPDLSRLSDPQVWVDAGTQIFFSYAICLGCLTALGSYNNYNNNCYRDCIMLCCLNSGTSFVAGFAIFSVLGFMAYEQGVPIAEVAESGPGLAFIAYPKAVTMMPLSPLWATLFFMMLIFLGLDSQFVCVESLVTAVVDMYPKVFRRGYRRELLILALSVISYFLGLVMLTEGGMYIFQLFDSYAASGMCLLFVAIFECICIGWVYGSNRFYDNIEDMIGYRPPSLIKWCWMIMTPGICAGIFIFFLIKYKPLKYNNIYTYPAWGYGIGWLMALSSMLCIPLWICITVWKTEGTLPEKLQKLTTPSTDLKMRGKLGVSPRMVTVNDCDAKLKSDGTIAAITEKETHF
Protocol: (§1) Cells were grown under standard conditions (37° C., 5% CO2) in Dulbecco's modified Eagles's medium (GIBCO, Grand Island, N.Y.).
(§2) Cells grown in 24-well plates were washed 3× with HEPES-buffered saline (HBS, in mM: NaCl, 150; HEPES, 20; CaCl2, 1; glucose, 10; KCl, 5; MgCl2, 1; pH 7.4) and allowed to equilibrate on a 37° C. slide warmer. After 10 minutes the medium was removed and unlabeled drugs in HBS were added (450 μl/well). […] Plates were incubated at 37° C. for 10 minutes, then washed rapidly 3× with ice-cold HBS, using a 24-position plate washer (Brandel, Gaithersburg, Mass.; model PW-12). Cells were solubilized with 0.05% sodium deoxycholate/0.1N NaOH (0.25 ml/well), an aliquot neutralized with 1N HCl, and radioactivity was determined by scintillation counting. Protein was quantified in an aliquot of the solubilized cells using a BIO-RAD protein assay kit, according to the manufacturer's directions.
(§3) Lipophilic inhibitors were dissolved in DMSO.
(§4) Data Analysis: Competition curves were conducted in duplicate, using 10 concentrations of unlabeled drug.

rat GAT-2 = molecular target: T2, rat GAT-2 (Rattus norvegicus, UniProt P31646)
T2 sequence (P31646 1-602): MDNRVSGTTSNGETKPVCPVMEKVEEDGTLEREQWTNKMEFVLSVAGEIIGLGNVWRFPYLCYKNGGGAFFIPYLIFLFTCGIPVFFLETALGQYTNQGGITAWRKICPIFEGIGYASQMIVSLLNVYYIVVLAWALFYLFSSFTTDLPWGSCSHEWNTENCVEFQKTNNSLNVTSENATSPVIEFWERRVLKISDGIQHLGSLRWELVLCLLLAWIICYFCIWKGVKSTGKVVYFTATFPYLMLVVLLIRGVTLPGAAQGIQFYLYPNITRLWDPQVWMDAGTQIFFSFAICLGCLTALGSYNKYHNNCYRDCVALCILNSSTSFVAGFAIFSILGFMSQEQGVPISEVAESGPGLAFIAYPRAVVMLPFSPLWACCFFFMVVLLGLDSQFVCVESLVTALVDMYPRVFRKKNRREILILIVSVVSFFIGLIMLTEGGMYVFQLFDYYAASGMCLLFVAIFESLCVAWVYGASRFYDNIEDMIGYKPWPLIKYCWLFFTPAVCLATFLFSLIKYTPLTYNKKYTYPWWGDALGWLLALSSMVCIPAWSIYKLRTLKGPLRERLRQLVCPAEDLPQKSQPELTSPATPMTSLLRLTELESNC
Protocol: as §1, §2, §3, §4

[1] = molecular target: T3, taurine transporter (rB16a) (Rattus norvegicus, UniProt P31643); assay: [3H]taurine uptake by COS-7 cells transfected with rB16a; settings: for inhibition at 10 µM: COS-7, read-out: % Inhibition of [3H]taurine uptake, rB16a, inhibitor 10 μM; for inhibition at 10 µM / inhibition at 100 µM / inhibition at 1000 µM / % Inhibition of [3H]taurine uptake, rB16a: 50 nM [3H]taurine, 10 minutes, 37° C.; for inhibition at 100 µM: COS-7, read-out: % Inhibition of [3H]taurine uptake, rB16a, inhibitor 100 μM; for inhibition at 1000 µM: COS-7, read-out: % Inhibition of [3H]taurine uptake, rB16a, inhibitor 1 mM
T3 sequence (P31643 1-621): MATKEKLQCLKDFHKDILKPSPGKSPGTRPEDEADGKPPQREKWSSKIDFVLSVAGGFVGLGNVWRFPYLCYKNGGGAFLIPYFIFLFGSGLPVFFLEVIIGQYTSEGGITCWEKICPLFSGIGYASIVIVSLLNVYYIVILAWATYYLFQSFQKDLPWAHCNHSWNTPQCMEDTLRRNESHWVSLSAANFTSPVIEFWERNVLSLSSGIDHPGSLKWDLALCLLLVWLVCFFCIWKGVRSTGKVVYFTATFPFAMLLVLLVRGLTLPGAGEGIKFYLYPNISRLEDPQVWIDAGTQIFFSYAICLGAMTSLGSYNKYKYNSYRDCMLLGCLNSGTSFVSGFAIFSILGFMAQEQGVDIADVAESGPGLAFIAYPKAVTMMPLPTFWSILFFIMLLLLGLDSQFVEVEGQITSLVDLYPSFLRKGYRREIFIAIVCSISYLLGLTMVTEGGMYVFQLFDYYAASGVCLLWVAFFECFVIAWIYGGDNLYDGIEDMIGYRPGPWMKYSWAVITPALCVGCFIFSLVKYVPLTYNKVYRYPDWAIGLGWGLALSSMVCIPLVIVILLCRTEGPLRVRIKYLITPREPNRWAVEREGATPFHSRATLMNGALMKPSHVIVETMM
Protocol: Transient transfections of COS cells with the plasmid pEVJB-rB16a were carried out using DEAE-dextran with DMSO according to the method of Lopata et al. (58) with minor modifications. COS cells were grown (37° C., 5%CO2) in high glucose Dulbecco's modified Eagle medium supplemented with 10% bovine calf serum, 100 U/ml penicillin G, and 100 μg/ml streptomycin sulfate. Cells were routinely used two days after transfection for transport studies.
Plates were incubated at 37° C. for 10 minutes unless indicated otherwise, then washed rapidly 3× with ice cold HBS. Cells were solubilized with 0.05% sodium deoxycholate/0.1N NaOH), an aliquot was neutralized with 1N HCl, and radioactivity was determined by scintillation counting. Protein was quantified in an aliquot of the solubilized cells using a BIO-RAD protein assay kit, according to the manufacturer's directions.

GAT-1 = molecular target: T4, GAT-1 (Rattus norvegicus, UniProt P23978); assay: [3H]GABA uptake by COS-7 cells transfected with GAT-1 (rB46a); format: cell-based
T4 construct: expressed in transfected cells; host or cells: COS-7 cells, transient (DEAE-dextran)

[2] = system: endogenous taurine transporter in COS cells; assay: [3H]taurine uptake by non-transfected COS-7 cells (control); format: cell-based; settings: 50 nM [3H]taurine, 10 minutes, 37° C.
rat GAT-1 = rat GAT-1 (Rattus norvegicus, UniProt P23978); settings: for IC50: read-out: IC50 for inhibition of [3H]GABA uptake, rGAT-1 (Table 8)
Protocol: as §2, §3, §4
COS cells grown in 75 cm^2 or 150 cm^2 flasks in DMEM with 10% bovine calf serum, 100 U/ml penicillin G, and 100 μg/ml streptomycin sulfate (37° C., 5% CO2) were transfected using DEAE-dextran. On the day following transfection the cells were split into 24-well assay plates coated with poly-D-lysine (10 μg/ml), and transport was measured 24 hours later.
After 10 minutes the medium was removed and unlabeled drugs in HBS were added (450 μl/well). […] Plates were incubated at 37° C. for 10 minutes, then washed rapidly 3× with ice-cold HBS, using a 24-position plate washer (Brandel, Gaithersburg, Mass.; model PW-12). Cells were solubilized with 0.05% sodium deoxycholate/0.1N NaOH (0.25 ml/well), an aliquot neutralized with 1N HCl, and radioactivity was determined by scintillation counting. Protein was quantified in an aliquot of the solubilized cells using a BIO-RAD protein assay kit, according to the manufacturer's directions.

[3] = IC50 for inhibition of [3H]GABA uptake, human GAT-3, stable cell line
[4] = COS-7, read-out: % Inhibition of [3H]GABA uptake, GAT-1

Compound	inhibition at 10 µM [1]	inhibition at 100 µM [1]	inhibition at 1000 µM [1]	% Inhibition of [3H]taurine uptake, rB16a ([1]; inhibitor 1 mM)	% Inhibition of [3H]taurine uptake, control ([2]; inhibitor 10 μM)	% Inhibition of [3H]taurine uptake, control ([2]; inhibitor 100 μM)	% Inhibition of [3H]taurine uptake, control ([2]; inhibitor 1 mM)	% Inhibition of [3H]taurine uptake, rB16a ([1]; inhibitor 10 μM)	% Inhibition of [3H]taurine uptake, rB16a ([1]; inhibitor 100 μM)	inhibition at 100 µM (GAT-1; [4])	other results
NCCCC(=O)O [GABA, gamma-aminobutyric acid]	9 ± 6%	~10%	~40%	44 ± 6 (8) %							IC50 (human GAT-3; [3]): ~5 µM and ~7 µM; IC50 (rat GAT-2): ~5 µM; affinity of the taurine transporter for GABA ([1]; from Table 15): ~1 mM
O=C(O)C1=CCCNC1 [guvacine]											inhibition at 10 µM (GAT-1; [4]): 41 ± 3%
NCCS(=O)(=O)O [taurine, 2-aminoethanesulfonic acid]	30 to 40%	~90%	~100%	100° %	38 ± 5 (7) %	89 ± 2 (4) %	100° %	29 ± 8 (5) %	83 ± 2 (5) %		VMAX of taurine transport, COS/rB16a ([1]; various concentrations of [3H]taurine, 30 seconds): 0.96±0.27 nmoles/mg protein
N[C@@H]1CCC[C@H](C(=O)O)C1 (relative stereo) [ACHC, cis-3-aminocyclohexanecarboxylic acid]										49 ± 10%	
NCCS(=O)O [hypotaurine]	30 to 40%	~90%	~100%		41 ± 3 (7) %	91 ± 1 (4) %	99 ± 1 (4) %	26 ± 7 (7) %	84 ± 3 (4) %		
NCC[C@H](N)C(=O)O [L-DABA, L-(2,4)diaminobutyric acid]										49 ± 8%	
hydroxynipecotic acid [OH-nipecotic]											% Inhibition of [3H]GABA uptake, GAT-1 (GAT-1; inhibitor 10 μM, 50 nM [3H]GABA, 10 minutes, 37° C.): 34 ± 5 (3) %; IC50 (rat GAT-1): 44 ± 8 µM
N=C(N)NCCS(=O)(=O)O [GES, guanidinoethanesulfonic acid]				92%	6 ± 3 (4) %	47 ± 3 (5) %	89 ± 1 (5) %	11%	45%		IC50 (rat GAT-1; full competition curves, 50 nM [3H]GABA): 4840 µM
O=C(O)C1=CCCN(CCON=C(c2ccccc2)c2ccccc2)C1 [NNC-711]											IC50 (human GAT-3; read-out: IC50 for inhibition of [3H]GABA uptake, human GAT-3, stable cell line): 1700 ± 252 µM; IC50 (rat GAT-2; read-out: IC50 for inhibition of [3H]GABA uptake, rat GAT-2, stable cell line, 50 nM [3H]GABA): 171 ± 53 µM; selectivity for GAT-1 (rat GAT-1): 1,000 fold; IC50 (rat GAT-1): 0.38 µM
NCCC(=O)O [β-alanine]	15%	51%	96%		9 ± 2 (6) %	63 ± 3 (6) %	97 ± 1 (4) %			11 ± 1%	IC50 (human GAT-3; [3]): ~58 µM and 58 µM; IC50 (rat GAT-2): 19 ± 7 µM
